Data: patent publication US10376499B2, “Combination therapy for treatment of resistant bacterial infections” (priority 2014, dated 2019)
≈ marks a conversion by molar mass, not a printed value.

System: A. baumannii
Assay: MIC by broth microdilution (CLSI), panel of 60 A. baumannii clinical isolates (Example 1)

Q: For C[C@H]1COc2c(N3CCN(C)CC3)c(F)cc3c(=O)c(C(=O)O)cn1c23 [LEVO, levofloxacin], which MIC50 (Acinetobacter baumannii) is on record?
A: 8 µg/mL (≈ 22.1 µM)

Q: What about the MIC90 (Acinetobacter baumannii) of the same molecule?
A: 32 µg/mL (≈ 88.6 µM)

Q: What about the MIC (Acinetobacter baumannii, strain ARC593, OXA-98) of the same molecule?
A: 0.25 µg/mL (≈ 0.692 µM)

Q: And the MIC (Acinetobacter baumannii, strain ARC2461, OXA-66, TEM-1)?
A: 16 µg/mL (≈ 44.3 µM)

Q: And the MIC (Acinetobacter baumannii, strain ARC2462, TEM-1, OXA-66)?
A: 16 µg/mL (≈ 44.3 µM)

Q: And the MIC (Acinetobacter baumannii, strain ARC2598, OXA*, TEM-1, OXA-113)?
A: 4 µg/mL (≈ 11.1 µM)

Q: And the MIC (Acinetobacter baumannii, strain ARC2635, OXA-65, OXA-40, TEM-1)?
A: 16 µg/mL (≈ 44.3 µM)

Q: And the MIC (Acinetobacter baumannii, strain ARC2636, OXA-65, OXA-40, TEM-1)?
A: 16 µg/mL (≈ 44.3 µM)

Q: What about the MIC (Acinetobacter baumannii, strain ARC2674, SHV-5, OXA-113) of the same molecule?
A: 16 µg/mL (≈ 44.3 µM)

Q: What about the MIC (Acinetobacter baumannii, strain ARC2675, SHV-5, OXA-113) of the same molecule?
A: 32 µg/mL (≈ 88.6 µM)

Q: What about the MIC (Acinetobacter baumannii, strain ARC2681, OXA-40, TEM-1, OXA-132) of the same molecule?
A: 16 µg/mL (≈ 44.3 µM)

Q: What about the MIC (Acinetobacter baumannii, strain ARC2682, SHV-5, OXA-113) of the same molecule?
A: 16 µg/mL (≈ 44.3 µM)

Q: And the MIC (Acinetobacter baumannii, strain ARC2777, OXA-172, TEM-1)?
A: 32 µg/mL (≈ 88.6 µM)

Q: What about the MIC (Acinetobacter baumannii, strain ARC2778, OXA-40, TEM-1, OXA-65) of the same molecule?
A: 32 µg/mL (≈ 88.6 µM)

Q: What about the MIC (Acinetobacter baumannii, strain ARC2780 (A. baumannii/calcoaceticus complex), OXA*, OXA-2, IMP-1) of the same molecule?
A: 4 µg/mL (≈ 11.1 µM)

Q: What about the MIC (Acinetobacter baumannii, strain ARC2782, OXA-66, OXA-23, TEM-1, PER-1) of the same molecule?
A: 4 µg/mL (≈ 11.1 µM)

Q: And the MIC (Acinetobacter baumannii, strain ARC2788, OXA-65, TEM-1)?
A: 32 µg/mL (≈ 88.6 µM)

Q: And the MIC (Acinetobacter baumannii, strain ARC3484, TEM-1, OXA-23, OXA-64)?
A: 8 µg/mL (≈ 22.1 µM)

Q: What about the MIC (Acinetobacter baumannii, strain ARC3485, OXA-82) of the same molecule?
A: 16 µg/mL (≈ 44.3 µM)

Q: And the MIC (Acinetobacter baumannii, strain ARC3486, OXA-72, OXA-66, TEM-1)?
A: 8 µg/mL (≈ 22.1 µM)

Q: What about the MIC (Acinetobacter baumannii, strain ARC3487, OXA-20, OXA-58, OXA-66) of the same molecule?
A: 8 µg/mL (≈ 22.1 µM)

Q: What about the MIC (Acinetobacter baumannii, strain ARC3488, OXA*, OXA-68) of the same molecule?
A: 32 µg/mL (≈ 88.6 µM)

Q: What about the MIC (Acinetobacter baumannii, strain ARC3489, OXA*, OXA-68) of the same molecule?
A: 16 µg/mL (≈ 44.3 µM)

Q: And the MIC (Acinetobacter baumannii, strain ARC3490, TEM-1+, PSE-2, OXA-69)?
A: 16 µg/mL (≈ 44.3 µM)

Q: What about the MIC (Acinetobacter baumannii, strain ARC3491 (A. baumannii/calcoaceticus complex), OXA-215) of the same molecule?
A: 1 µg/mL (≈ 2.77 µM)

Q: And the MIC (Acinetobacter baumannii, strain ARC3492, OXA-40, OXA-132, TEM-1)?
A: 8 µg/mL (≈ 22.1 µM)

Q: And the MIC (Acinetobacter baumannii, strain ARC3493, OXA-40, OXA-66)?
A: 4 µg/mL (≈ 11.1 µM)

Q: What about the MIC (Acinetobacter baumannii, strain ARC3494, OXA-65) of the same molecule?
A: 0.25 µg/mL (≈ 0.692 µM)

Q: And the MIC (Acinetobacter baumannii, strain ARC3495, OXA-40, OXA-109)?
A: 4 µg/mL (≈ 11.1 µM)

Q: What about the MIC (Acinetobacter baumannii, strain ARC3513, TEM-1, OXA-23, OXA-65) of the same molecule?
A: 16 µg/mL (≈ 44.3 µM)

Q: What about the MIC (Acinetobacter baumannii, strain ARC3515, OXA-64, OXA-58) of the same molecule?
A: 8 µg/mL (≈ 22.1 µM)

Q: What about the MIC (Acinetobacter baumannii, strain ARC3657, OXA-130) of the same molecule?
A: 16 µg/mL (≈ 44.3 µM)

Q: And the MIC (Acinetobacter baumannii, strain ARC3658, OXA-66, PER-1, TEM-1, OXA-23)?
A: 8 µg/mL (≈ 22.1 µM)

Q: What about the MIC (Acinetobacter baumannii, strain ARC3659, OXA-23, OXA*) of the same molecule?
A: 8 µg/mL (≈ 22.1 µM)

Q: And the MIC (Acinetobacter baumannii, strain ARC3882, OXA-23, NDM-1, OXA-10*)?
A: 4 µg/mL (≈ 11.1 µM)

Q: And the MIC (Acinetobacter baumannii, strain ARC5073, OXA-23, TEM-1, OXA-64, PER-1)?
A: 8 µg/mL (≈ 22.1 µM)

Q: What about the MIC (Acinetobacter baumannii, strain ARC5074, GES*, TEM-1, OXA-51) of the same molecule?
A: 4 µg/mL (≈ 11.1 µM)

Q: What about the MIC (Acinetobacter baumannii, strain ARC5075, SHV-5, OXA-113) of the same molecule?
A: 32 µg/mL (≈ 88.6 µM)

Q: What about the MIC (Acinetobacter baumannii, strain ARC5076, TEM-1, OXA-23, OXA-66) of the same molecule?
A: 8 µg/mL (≈ 22.1 µM)

Q: And the MIC (Acinetobacter baumannii, strain ARC5077, OXA*, OXA-72)?
A: 16 µg/mL (≈ 44.3 µM)

Q: What about the MIC (Acinetobacter baumannii, strain ARC5079, OXA-72, OXA-65) of the same molecule?
A: 16 µg/mL (≈ 44.3 µM)

Q: And the MIC (Acinetobacter baumannii, strain ARC5080, OXA-71, OXA-40)?
A: 16 µg/mL (≈ 44.3 µM)

Q: What about the MIC (Acinetobacter baumannii, strain ARC5081, OXA-94, OXA-23) of the same molecule?
A: 8 µg/mL (≈ 22.1 µM)

Q: And the MIC (Acinetobacter baumannii, strain ARC5082, OXA-66, OXA-23)?
A: 8 µg/mL (≈ 22.1 µM)

Q: What about the MIC (Acinetobacter baumannii, strain ARC5083, OXA-66, OXA-23) of the same molecule?
A: > 32 µg/mL

Q: What about the MIC (Acinetobacter baumannii, strain ARC5084, IMP-4(B), OXA-58, OXA-65) of the same molecule?
A: 4 µg/mL (≈ 11.1 µM)

Q: What about the MIC (Acinetobacter baumannii, strain ARC5085, OXA*, TEM-1) of the same molecule?
A: 32 µg/mL (≈ 88.6 µM)

Q: And the MIC (Acinetobacter baumannii, strain ARC5086, OXA*, TEM-1, OXA-72, OXA-66)?
A: 16 µg/mL (≈ 44.3 µM)

Q: What about the MIC (Acinetobacter baumannii, strain ARC5087, OXA-66, OXA-23) of the same molecule?
A: > 32 µg/mL

Q: What about the MIC (Acinetobacter baumannii, strain ARC5088, OXA-20, OXA-58, OXA-66) of the same molecule?
A: 8 µg/mL (≈ 22.1 µM)

Q: And the MIC (Acinetobacter baumannii, strain ARC5089, PER*, TEM-1, OXA-23, OXA-66)?
A: 16 µg/mL (≈ 44.3 µM)

Q: And the MIC (Acinetobacter baumannii, strain ARC5091, OXA-82, OXA-23)?
A: > 32 µg/mL

Q: And the MIC (Acinetobacter baumannii, strain ARC5092, OXA-23, OXA-64)?
A: 8 µg/mL (≈ 22.1 µM)

Q: What about the MIC (strain ARC2058, OXA-95) of the same molecule?
A: 0.125 µg/mL (≈ 0.346 µM)

Q: And the MIC (strain ARC2779 (A. baumannii/calcoaceticus complex), OXA-2, VIM-2)?
A: 0.125 µg/mL (≈ 0.346 µM)
